Measured values: PMC9414676, “Experimental Studies Indicate That ST-2223, the Antagonist of Histamine H3 and Dopamine D2/D3 Receptors, Restores Social Deficits and Neurotransmission Dysregulation in Mouse Model of Autism” (Pharmaceuticals, 2022)

Legend:
[1] = system: prefrontal cortex of B6 mice; parameters: method as in PMID 16023290; details: 0.3 mg/kg of ARP; cited from earlier work
[2] = system: BTBR mice; assay: Social approach test (SAT), sociability (novel mouse vs novel object); format: in vivo; details: ARP 1 mg/kg i.p. chronic
Description: (§1) All the mice were randomly divided into nine groups of 5–7 mice each. The mice were injected intraperitonially once daily for 21 days with different doses of ST2223 (2.5, 5, and 10 mg/kg, i.p.), ARP 1 mg/kg or vehicle (1% DMSO in 0.9% normal saline). Group I, B6 mice were injected with vehicle served as control. Group II, BTBR mice were treated with vehicle. Groups III–V, BTBR mice received i.p. injections of different doses of ST2223 (2.5, 5, and 10 mg/kg, i.p.), respectively. Group VI, BTBR mice were injected with ARP (1 mg/kg, i.p.). For abrogation studies, Group VII, BTBR mice were treated with ST2223 (5 mg/kg, i.p.) along with RAM (10 mg/kg, i.p.). Group VIII, B6 mice were co-injected with vehicle and RAM (10 mg/kg, i.p). All treatments and vehicle (VEH) were administered 30–45 min before each behavioral test. The doses of these drugs were selected based on previous reports. Behavioral testing was performed between 9:00 am and 3:00 pm in an order randomized by group and in the following sequence: social approach test (SAT) and open field locomotor test (OFL). The chronic treatment started one week before the behavioral test and was continued for a total of 21 days as described above (Figure 7). Following behavioral tests, i.e., on day 21 of systemic treatment, five of the animals were sacrificed. The animals were deeply anesthetized with pentobarbital (40 mg/kg, i.p., body weight). To wash out the blood, cardiac perfusion was carried out using 0.01 M phosphate-buffered saline (PBS) at pH 7.4. The brains were quickly removed and placed on an ice plate, where the cerebellum, hippocampus, prefrontal cortex, and striatum were excised from the brain and snap-frozen in liquid nitrogen for later LC-MS/MS analysis.
The social approach test (SAT) was performed using an automated three-chamber device (EthoVision® Software, Noldus, The Netherlands) as previously described. The transparent polycarbonate chamber is rectangular and is composed of three interconnected partitions (homemade), which are separated by two sliding doors. In brief, after 10 min of habituation, the study mouse was placed in the central chamber with the doors opened, and the mouse was given the choice to interact with either an empty plastic cup located in one side chamber, referred to as a novel object (NO), or a similar plastic cup with an unfamiliar mouse inside it located in the opposite chamber, referred to as a novel mouse (NM), which was matched in age, sex, and strain with test mouse. To avoid innate side preferences, the plastic cup for NO and NM were randomly placed in either chamber and the placement was changed between studies and between mice. For 10 min, the test mouse was allowed to explore all three chambers and cups, and the time spent interacting with NO and NM (sniffing) was automatically recorded by EthoVision® Software. Immediately after this session, a novel mouse is kept in the empty cup and is referred to as novel mouse (NM), and the mouse in the other cup from the earlier session is referred to as familiar mouse (FM). The study mouse is allowed to explore the three chambers for 10 min, and the time spent for interacting with both mice was automatically recorded, to assess social novelty preference. Eight groups of 7 mice/group were used for the SAT. To allow the direct comparison of social behavior between the treated groups, the sociability index (SI) and social novelty index (SNI) were calculated with the following formula, as previously described: SI=(Time exploring NM−Time exploring NO)/(Time exploring NM+Time exploring NO) SNI=(Time exploring NM−Time exploring FM)/(Time exploring NM+Time exploring FM)

[3] = system: BTBR mice; assay: Social approach test (SAT), social novelty preference (novel mouse vs familiar mouse); format: in vivo; details: ARP 1 mg/kg i.p. chronic, p < 0.001
Description: as §1
The social approach test (SAT) was performed using an automated three-chamber device (EthoVision® Software, Noldus, The Netherlands) as previously described. The transparent polycarbonate chamber is rectangular and is composed of three interconnected partitions (homemade), which are separated by two sliding doors. […] For 10 min, the test mouse was allowed to explore all three chambers and cups, and the time spent interacting with NO and NM (sniffing) was automatically recorded by EthoVision® Software. […] The study mouse is allowed to explore the three chambers for 10 min, and the time spent for interacting with both mice was automatically recorded, to assess social novelty preference. […] To allow the direct comparison of social behavior between the treated groups, the sociability index (SI) and social novelty index (SNI) were calculated with the following formula, as previously described: SI=(Time exploring NM−Time exploring NO)/(Time exploring NM+Time exploring NO) SNI=(Time exploring NM−Time exploring FM)/(Time exploring NM+Time exploring FM)

[4] = system: BTBR mice; assay: Open field locomotor test (OFL), anxiety-like behavior and locomotion; format: in vivo; details: ARP 1 mg/kg i.p. chronic
Description: as §1
Open field locomotor test (OFL) systematically assesses exploratory activity based on subjecting an animal to an unfamiliar environment whose escape is prevented by surrounding walls. It is a model of anxiety-like behavior, suitable for assessing motor activity as a reaction to an unknown environment, i.e., locomotion motivated by exploration. Both general locomotor activity and anxiety-related behaviors were assessed as the mice were placed individually inside an open field arena (45 × 45 × 30 cm) and were allowed to move freely for 10 min [80]. Mice were introduced into the center area of the arena (23 × 23 cm) and given 5 min habituation before actual behaviors recording. The overall distance moved inside the complete arena and time spent in the center and periphery was recorded for 10 min using CCD camera-assisted motion tracking equipment and software program (EthoVision 3.1, Noldus Information Technology, The Netherlands). Measurements obtained included total distance traveled and center and periphery time spent for […]. After each testing sessions, chambers we cleaned with 70% ethanol, and enough time was allowed for ethanol evaporation and odor dissipation. When evaluating the results, more time spent in the center indicated low levels of anxiety-like behaviors and total distance travelled represented locomotor activity.

[5] = system: dopamine levels in BTBR mice brain; assay: Dopamine levels by LC-MS/MS in brain regions; format: in vivo; parameters: key to Dopamine level: ↔: No significant alterations; ↑: significant increase; ↑↑: additional significant increase vs. ST-2223-treated mice; ↓: significant decrease; details: ARP 1 mg/kg i.p. chronic, vs VEH-treated BTBR mice
Description: as §1
(§2) Perfusion was done on anesthetized animals using 1X PBS as described previously. Different regions of the brain were snap frozen. Frozen tissues were then weighed and homogenized in a 10-fold volume of acetonitrile. For 50mg of tissue, 500 µL of acetonitrile and Internal standard mix were added and homogenized. Homogenates were centrifuged at 15,000 rcf for 15 min at 4 °C. Tissue levels of dopamine, acetylcholine, histamine, and their metabolites were assessed using LC-MS/MS. LC-MS/MS analysis was conducted utilizing Waters BEH C18 COLUMN (2.1 × 100 mm, 1.7 µm) using Waters Acquity UPLC Binary Solvent Manager and FTN Sample Manager. The system was run in gradient mode with mobile phase A consisting of LC-MS GRADE WATER + 0.1% FORMIC ACID and mobile phase B consisting of 100% ACETONITRILE. Mobile phase was duly filtered through 0.2 µm filter and degassed ultrasonically for 15 min prior to use. Separations were performed at room temperature with 0.3 mL/min flow rate gradient starting with 90% of A for up to 0.5 min. Then, % of A was decreased gradually until it reached 20% at 2.5 min after which at 3 min %A was brought back to the initial condition and left for equilibration for 2 more minutes before the next injection (total 5 min run time). The injection volume was kept at 1 µL. Mass spectrometric detection was performed in multiple reaction monitoring (MRM) mode with positive electrospray ionization (ESI+) on Xevo TQS mass spectrometer (Waters, Milford, MA) equipped with an electrospray ionization (ESI) source and triple quadrupole mass analyzer. MRM transitions and instrument parameters were set by tuning the instrument by infusing each analyte. MRM transitions taken for quantification were 146.2 > 87.1 for Acetylcholine, 112.2 > 95.2 for Histamine, 154.1 > 137.2 for Dopamine, 150.2 > 91.3 for Acetylcholine D4, and […] > 99.3 for Histamine D4. Capillary Voltage, Source Offset, Source Temperature, De solvation Temperature, Cone Gas Flow, De solvation Gas Flow, Collision Gas Flow, Nebulizer Gas Flow were set as 3.0 (kV), 60.0 (V), 150 (°C), 550 (°C), 150 (L/Hr), 1000 (L/Hr), 0.13 (mL/min), and 7 (Bar), correspondingly. […]

[6] = system: acetylcholine levels in BTBR mice brain; assay: Acetylcholine levels by LC-MS/MS in brain regions; format: in vivo; parameters: key to Acetylcholine level: ↔: No significant alterations; ↑: significant increase; ↑↑: additional significant increase vs. ST-2223-treated mice; ↓: significant decrease; details: for Acetylcholine level: ARP 1 mg/kg i.p. chronic, vs VEH-treated BTBR mice
Description: as §1, §2

[7] = system: histamine levels in BTBR mice brain; assay: Histamine levels by LC-MS/MS in brain regions; format: in vivo; parameters: key to Histamine level: ↔: No significant alterations; ↑: significant increase; ↑↑: additional significant increase vs. ST-2223-treated mice; ↓: significant decrease; details: ARP 1 mg/kg i.p. chronic, vs VEH-treated BTBR mice
Description: as §1, §2

For `O=C1CCc2ccc(OCCCCN3CCN(c4cccc(Cl)c4Cl)CC3)cc2N1` [ARP, aripiprazole, reference compound], the “DA levels in dialysate” value [1] is given as “significant increase of DA levels in dialysate”, the “sociability, time exploring NM compared to NO” value [2] is given as “markedly increased sociability” and the “exploring time spent with NM vs VEH-treated BTBR mice” value ([2]; p < 0.001) is given as “significantly improved exploring time spent with NM”. The “preference to novel mouse (NM) over familiar mouse (FM) vs VEH-treated BTBR mice” value [3] was “enhanced preference to stranger NM over FM”, the “abnormal anxiety observed by BTBR mice” value [4] was “failed to restore the abnormal anxiety” and the “time spent in the periphery” value [4] was “no group differences”. For the same compound, the “total distance travelled vs VEH-treated BTBR mice” value ([4]; p < 0.01) was “significantly decreased the total distance travelled”, the Dopamine level ([5]; Cerebellum) was “↓^b” and the Dopamine level ([5]; Hippocampus) was “↓^b”. The Dopamine level ([5]; Prefrontal cortex) was “↔”, the “acetylcholine levels” value ([6]; ARP 1 mg/kg chronic, p < 0.05) was “signified increase in the levels of acetylcholine in the prefrontal cortex, cerebellum, and striatum tissues” and the Acetylcholine level ([6]; Cerebellum) was “↑ ^b”. For the same compound, the Acetylcholine level ([6]; Hippocampus) was “↔”, the Acetylcholine level ([6]; Prefrontal cortex) was “↑ ^b” and the Acetylcholine level ([6]; Striatum) was “↑ ^b”. The “levels of histamine in brain regions” value ([7]; p < 0.05) was “increased the levels of histamine in the cerebellum, striatum, and hippocampus”, the Histamine level ([7]; Cerebellum) was “↑ ^b” and the Histamine level ([7]; Hippocampus) was “↑ ^b”. The Histamine level ([7]; Prefrontal cortex) was “↔”.
